Values of other authors in patent publication US11992485B2, “Analgesic formulations and methods for reduced postoperative nausea and vomiting and enhanced postoperative pain relief” (Hutchison Health, LLC, priority 2013, dated 2024).
Structures can show the parent of a compound that is named as a salt.

Key:
[1] = system: Lumbar Laminectomy patients
[2] = system: 50 patients
[3] = Table 2: 12 hr., Rahmanian et al.

## CCCCN1CCCCC1C(=O)Nc1c(C)cccc1C (stereo not drawn) [Bupivacaine Hydrochloride]
[1]; 30 mL of 0.25%, infiltrative field block at surgical closure, Rahmanian
  decrease of postoperative surgical pain compared with 30 ml Normal Saline: no more effective than 30 ml Normal Saline
[1]; [3]
  Patients with MILD PAIN: 0%
  Patients with NO PAIN: 0%
[1]; subjective linear VAS, Rahmanian
  VAS scores at rest compared with control Normal Saline group: higher
[2]; Table 1: first 24-48 hours post-surgery, Patel et al.
  % of patients with NO PONV: 72%
[2]; intrathecal, Patel
  patients who developed PONV: 28%
